According to US20100099132A1, “BACTERIAL GROWTH INDUCER” (priority 2007, published 2010):

Legend:
[1] = Stability (heat, lyophilisation, storage, enzymes, pH); assay type: physicochemical
Procedure: BuGro™ and the individual activity Peaks 1, 2 and 3 are each stable to 60 minutes boiling when in a heat-stable buffer such as 50 mM Tris-HCl, pH 7.5 or phosphate buffered saline (PBS). All are fully stable to lyophilisation, and if maintained in a lyophilised form, crude BuGro™ is 90-95% stable to storage at 4° C. for at least 2 years.

H. alvei = assay: Effect of additions on synthesis of BuGro activity by H. alvei in M9 minimal media; assay type: cell-based, Hafnia alvei; details: added at inoculum stage to H. alvei M9 culture: 5% supernatant (approx. 50 units/ml) or 100 μM norepinephrine; listed as NE
Procedure: Therefore, H. alvei was inoculated at 2×10^6 CFU/ml into M9 minimal media supplemented with 0.4% (w/v) glucose only (ie no addition, N/A), or with 5% culture supernatant from a previous H. alvei M9 culture (approximately 50 units/ml) (HA), or with 100 μM norepinephrine (NE). The cultures were incubated at 37° C. in a rotatory shaking incubator for 18 hrs (final cell density: 2.17, 2.32 and 2.39×10^8 CFU/ml). Bacteria were removed by centrifugation at 10,000 g for 15 minutes, and the resulting culture supernatant was sterilised by passage through a 0.2 micron stericup filter. The sterile supernatant was assayed at various volumes using test strain E. coli E2348/69 inoculated at 10^2 CFU/ml into serum-SAPI media and incubated statically for 17 hrs at 37° C. in a humidified CO2 incubator. Growth levels were measured using Luria agar and pour plate analysis.

E. coli = details: serum-based media; Table 2, prior art WO 98/53047; cited from earlier work

| SMILES | stability once synthesised in minimal media such as M9 [1] | effect on synthesis of BuGro activity (H. alvei) | effect on Bacxell synthesis (E. coli) |
| --- | --- | --- | --- |
| O=C(N[C@H]1COC(=O)[C@@H](NC(=O)c2cccc(O)c2O)COC(=O)[C@@H](NC(=O)c2cccc(O)c2O)COC1=O)c1cccc(O)c1O [enterobactin] | highly unstable | – | – |
| NC[C@H](O)c1ccc(O)c(O)c1 [norepinephrine] | – | not induced | 4. Induced by norepinephrine, but also |
